From patent US10899738B2 (THE REGENTS OF THE UNIVERSITY OF MICHIGAN, priority 2016, dated 2021)
Where two headings read alike, the source gives them in different places.

Columns and labels:
menin protein = menin protein (Homo sapiens (Human), UniProt O00255); assay: biochemical; format: binding; conditions: FP competitive binding; menin protein 4 nM, FAM-MM2 probe 2 nM; read-out: Menin Binding Affinity IC50
Procedure, shortened: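 Test compounds displaced FAM-MM2 (2 nM) from 4 nM menin after 30 min equilibration at room temperature in PBS buffer containing bovine γ-globulin, 4% DMSO and Triton X-100. Binding was followed by fluorescence polarization. Competition curves were fitted by nonlinear regression to give IC50 and Ki.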

[1] = Cell growth inhibition, CellTiter-Glo Luminescent Cell Viability Assay; format: cell-based
Procedure, shortened: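 Cells seeded at 2,000/well with serially diluted compound and cultured 4 days at 37 °C, 5% CO2. Viability read by CellTiter-Glo luminescence; IC50 derived from dose-response.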

[2] = MOLM-13, 96 h, read-out: Cell Growth Inhibition IC50 (μM) MOLM13, MOLM13 cells, 4 days, CellTiter-Glo
[3] = MV4-11, 96 h, read-out: Cell Growth Inhibition IC50 (μM) MV4, 11, MV4, 11 cells, 4 days, CellTiter-Glo
[4] = MOLM-13, 96 h, MOLM13 cells, 4 days, CellTiter-Glo, read-out: Cell Growth Inhibition IC50 (μM) MOLM13
[5] = MV4-11, 96 h, MV4, 11 cells, 4 days, CellTiter-Glo, read-out: Cell Growth Inhibition IC50 (μM) MV4, 11

menin protein, sequence (O00255 whole entry): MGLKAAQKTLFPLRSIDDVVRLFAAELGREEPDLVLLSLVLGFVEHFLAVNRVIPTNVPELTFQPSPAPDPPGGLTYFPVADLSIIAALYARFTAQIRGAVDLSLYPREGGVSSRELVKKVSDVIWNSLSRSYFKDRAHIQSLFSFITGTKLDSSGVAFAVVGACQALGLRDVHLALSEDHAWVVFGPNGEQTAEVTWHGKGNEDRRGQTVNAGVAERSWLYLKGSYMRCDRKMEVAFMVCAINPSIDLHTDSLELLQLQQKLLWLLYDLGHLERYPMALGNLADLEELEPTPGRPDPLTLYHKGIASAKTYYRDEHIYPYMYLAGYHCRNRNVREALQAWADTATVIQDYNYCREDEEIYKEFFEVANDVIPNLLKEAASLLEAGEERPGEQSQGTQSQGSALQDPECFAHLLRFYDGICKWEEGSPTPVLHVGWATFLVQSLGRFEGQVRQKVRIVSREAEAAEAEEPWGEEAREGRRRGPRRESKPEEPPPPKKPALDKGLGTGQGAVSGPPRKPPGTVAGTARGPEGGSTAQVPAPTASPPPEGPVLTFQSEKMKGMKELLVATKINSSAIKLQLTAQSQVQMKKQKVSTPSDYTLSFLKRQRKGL

Structure (SMILES): CNC(=O)O[C@H]1CCC[C@@H]1C(Cn1ccnc1)(c1ccccc1)C1CCN(CC2CN(c3ccc(Cl)cc3)C2)CC1 (mixture of isomers) [compound 407, rac-(1S,2R)-2-(1-(1-((1-(4-chlorophenyl)azetidin-3-yl)methyl)piperidin-4-yl)-2-(1H-imidazol-1-yl)-1-phenylethyl)cyclopentyl methylcarbamate]
- IC50 (menin protein): 5 nM
- IC50 [1, 2]: 0.69 ± 0.089 µM
- IC50 [1, 3]: 0.41 ± 0.28 µM

Structure (SMILES): CCc1nccn1CC(c1ccccc1)(C1CCN(CC2CN(c3ccc(C#N)cc3)C2)CC1)[C@H]1CCC[C@@H]1OC(=O)NC (mixture of isomers) [compound 408, rac-(1S,2R)-2-(1-(1-((1-(4-cyanophenyl)azetidin-3-yl)methyl)piperidin-4-yl)-2-(2-ethyl-1H-imidazol-1-yl)-1-phenylethyl)cyclopentyl methylcarbamate]
- IC50 (menin protein): 3 nM
- IC50 [1, 2]: 0.017 ± 0.007 µM
- IC50 [1, 3]: 0.005 ± 0.002 µM

Structure (SMILES): CCc1nccn1CC(c1ccccc1)(C1CCN(CC2CN(c3ccc(C#N)cc3)C2)CC1)[C@@H]1CCC[C@H]1OC(=O)NC (mixture of isomers) [compound 409, rac-(1R,2S)-2-(1-(1-((1-(4-cyanophenyl)azetidin-3-yl)methyl)piperidin-4-yl)-2-(2-ethyl-1H-imidazol-1-yl)-1-phenylethyl)cyclopentyl methylcarbamate]
- IC50 (menin protein): 116 nM
- IC50 [1, 2]: 1.6 µM
- IC50 [1, 3]: 1.7 µM

Structure (SMILES): CNC(=O)O[C@@H]1CCC[C@H]1C(Cn1ccnc1C)(c1cccc(F)c1)C1CCN(CC2CN(c3ccc(S(=O)(=O)c4cnn(C)c4)cc3)C2)CC1 (mixture of isomers) [compound 410, rac-(1R,2S)-2-(1-(3-fluorophenyl)-2-(2-methyl-1H-imidazol-1-yl)-1-(1-((1-(4-((1-methyl-1H-pyrazol-4-yl)sulfonyl)phenyl)azetidin-3-yl)methyl)piperidin-4-yl)ethyl)cyclopentyl methylcarbamate]
- IC50 (menin protein): 49 nM
- IC50 [1, 2]: 3.1 µM
- IC50 [1, 3]: 2.7 µM

Structure (SMILES): CNC(=O)O[C@H]1CCC[C@@H]1C(Cn1ccnc1C)(c1cccc(F)c1)C1CCN(CC2CN(c3ccc(S(=O)(=O)c4cnn(C)c4)cc3)C2)CC1 (mixture of isomers) [compound 411, rac-(1S,2R)-2-(1-(3-fluorophenyl)-2-(2-methyl-1H-imidazol-1-yl)-1-(1-((1-(4-((1-methyl-1H-pyrazol-4-yl)sulfonyl)phenyl)azetidin-3-yl)methyl)piperidin-4-3-yl)ethyl)cyclopentyl methylcarbamate]
- IC50 (menin protein): 3 nM
- IC50 [1, 2]: 0.016 µM
- IC50 [1, 3]: 0.003 µM

Structure (SMILES): CCN1Cc2ccccc2C(C2CCCC2)(C2CCN(CC3CN(c4ccc(S(=O)(=O)c5ccncc5)cc4)C3)CC2)C1 (stereo not drawn) [Cpd. No. 148, 4-cyclopentyl-2-ethyl-4-(1-((1-(4-(pyridin-4-ylsulfonyl)phenyl)azetidin-3-yl)methyl)piperidin-4-yl)-1,2,3,4-tetrahydroisoquinoline]
- IC50 (menin protein): 6 nM
- IC50 [1, 4]: 1.5 ± 0.9 µM
- IC50 [1, 5]: 0.81 ± 0.364 µM

Structure (SMILES): N#Cc1ccc(OCCCN2CCC(C3(C4CCCC4)CNCc4ccccc43)CC2)cc1 (stereo not drawn) [compound 19, 4-(3-(4-(4-cyclopentyl-1,2,3,4-tetrahydroisoquinolin-4-yl)piperidin-1-yl)propoxy)benzonitrile]
- IC50 (menin protein): 61 nM
- IC50 [1, 2]: 7.3 µM
- IC50 [1, 3]: 1.6 ± 0.1 µM

Structure (SMILES): CN1Cc2ccccc2C(C2CCCC2)(C2CCN(CCCOc3ccc(C#N)cc3)CC2)C1 (stereo not drawn) [compound 23, 4-(3-(4-(4-cyclopentyl-2-methyl-1,2,3,4-tetrahydroisoquinolin-4-yl)piperidin-1-yl)propoxy)benzonitrile]
- IC50 (menin protein): 54 nM
- IC50 [1, 2]: 5 µM
- IC50 [1, 3]: 1 ± 0.4 µM

Structure (SMILES): N#Cc1ccc(N2CC(CN3CCC(C4(C5CCCC5)CNCc5ccccc54)CC3)C2)cc1 (stereo not drawn) [compound 43, 4-(3-((4-(4-cyclopentyl-1,2,3,4-tetrahydroisoquinolin-4-yl)piperidin-1-yl)methyl)azetidin-1-yl)benzonitrile]
- IC50 (menin protein): 26 nM
- IC50 [1, 4]: 2.1 µM
- IC50 [1, 5]: 0.896 ± 0.056 µM
